The structures appear in SMILES notation.

One test concerns HCV genotype 1b replicon. The test is described as follows: HCV genotype 1b replicon assay (Renilla luciferase readout). It is filed as cell-based, hepatitis C virus. The conditions noted are these: Hepatitis C virus, read-out: Genotype 1b. The essentials: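 Huh7-derived APC144 subgenomic replicon cells carrying Renilla luciferase–NS3-NS5B, seeded 10,000/well without G418, then treated with compound dose-responses for 48 h at 37 °C (0.5% DMSO final). Luciferase signal fitted by 4-parameter model to EC50, reported as pEC50.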

The subject of a further test is HCV genotype 1a replicon. Kind of test: HCV genotype 1a replicon assay (NS3 protease activity readout). It is filed as cell-based, hepatitis C virus. The conditions noted are these: Hepatitis C virus, read-out: Genotype 1a, HCV genotype 1a replicon. In short, it runs like this: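 Genotype 1a subgenomic replicon cells (APC89, Huh7.5) were treated with compound dose-responses in G418-free medium, 0.5% DMSO final, for 48 or 72 hours at 37° C. Lysate NS3/4a protease activity measured with 15 μM FRET substrate, 20 min at 37° C (ex 340/em 509 nm); EC50 by 4-parameter fit.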

For test [1], the system named is HCV genotype 1a Y93H resistant mutant replicon. The test is described as follows: Replicon assay against resistant mutant 1a Y93H (transient transfection). It is filed as cell-based. The conditions noted are these: Hepatitis C virus, read-out: Genotype 1a Y93H. The protocol: Assay 3: Replicon Assays Against Resistant Mutants […]
Potencies of test compounds against additional mutations of interest were determined using transient transfection assays. These mutants included genotype 1a Y93C, Y93H, M28T, Q30E, Q30K, L31M, and Y93N. The mutation was first introduced into the parental plasmid by site-directed mutagenesis. The replicon plasmid was then linearized and in vitro transcribed to RNA. The RNA was used to transiently transfect Huh-LUNET cells (obtained from ReBLikon GmbH, Schriesheim, Germany) by electroporation, and the potencies of test compounds against the mutants were determined as previously described.

In test [2] the test system is HCV genotype 2a (J6 strain) NS5A chimeric replicon. Kind of test: Replicon assay against NS5A sequence of genotype 2a (J6 strain), intergenotypic chimera. It is filed as cell-based. The conditions noted are these: Hepatitis C virus, read-out: Genotype 2a (J6). The protocol: (§1) Assay 4: Replicon Assays Against NS5A Sequences of Other Genotypes
(§2) Potencies of test compounds against NS5A sequences of other genotypes were determined by creating intergenotypic chimeras. The entire NS5A gene from genotypes 2a, 2b, 3a, 4a, 5a, and 6a, or the nucleotide sequence encoding amino acids 11-118 of NS5A, was subcloned into a genotype 1b replicon. For genotype 2a, intergenotypic chimeras with both the JFH and the J6 strain were created. […] Since the majority of genotype 2a sequences in public databases contain the L31M sequence variant, the use of the J6 genotype 2a sequence may better reflect the antiviral potency of NS5A inhibitors.
(§3) These chimeric replicon plasmids were then linearized and in vitro transcribed to RNA. The RNA was used to transiently or stably transfect Huh-LUNET cells by electroporation, and the potencies of test compounds against the chimeras were determined as previously described.

For test [3], the system named is HCV genotype 3a NS5A chimeric replicon. The test is described as follows: Replicon assay against NS5A sequence of genotype 3a, intergenotypic chimera. It is filed as cell-based. The conditions noted are these: Hepatitis C virus, read-out: Genotype 3a. The procedure: as §1, §2, §3

`COC(=O)N[C@H](C(=O)N1CC2(C[C@H]1c1nc(-c3ccc(-c4ccc(NC(=O)c5ccc(N6CCN(C(=O)[C@H]7CC7(C)C)C[C@H]6C)nc5)cc4OC(F)(F)F)cc3)c[nH]1)OCCO2)C(C)C` [Example 4, Methyl (S)-1-((S)-8-(4-(4′-(6-((R)-4-((S)-2,2-dimethylcyclopropanecarbonyl)-2-methylpiperazin-1-yl)nicotinamido)-2′-(trifluoromethoxy)biphenyl-4-yl)-1H-imidazol-2-yl)-1,4-dioxa-7-azaspiro[4.4]nonan-7-yl)-3-methyl-1-oxobutan-2-ylcarbamate]: the EC50 with HCV genotype 1b replicon was < 0.1 nM; in the test on HCV genotype 1a replicon it was < 0.1 nM; in test [1], 0.1 to 1 nM; in test [2], 1 to 10 nM; in test [3], 1 to 10 nM.
On to `COC(=O)N[C@H](C(=O)N1C[C@@H](OC)C[C@H]1c1nc(-c2ccc(-c3cc(Cl)c(NC(=O)c4ccc(N5CCN(C(=O)C(C)(C)C)C[C@H]5C)nc4)cc3OC(F)(F)F)cc2)c[nH]1)C1CCOCC1` [Example 15], for which the EC50 in the test with HCV genotype 1b replicon is < 0.1 nM; in the test on HCV genotype 1a replicon it was < 0.1 nM; in test [1], 1 to 10 nM; in test [2], 0.1 to 1 nM; in test [3], 0.1 to 1 nM.
Take `COC(=O)N[C@H](C(=O)N1C[C@@H](C)C[C@H]1c1nc(-c2ccc(-c3cc(Cl)c(C(=O)Nc4ccc(N5CCN(C(=O)C(C)(C)C)C[C@H]5C)nc4)cc3OC(F)(F)F)cc2)c[nH]1)C1CCOCC1` [Example 19, Methyl ((S)-2-((2S,4S)-2-(4-(5′-chloro-4′-((6-((R)-2-methyl-4-pivaloylpiperazin-1-yl)pyridin-3-yl)carbamoyl)-2′-(trifluoromethoxy)-[1,1′-biphenyl]-4-yl)-1H-imidazol-2-yl)-4-methylpyrrolidin-1-yl)-2-oxo-1-(tetrahydro-2H-pyran-4-yl)ethyl)carbamate]: the EC50 in the test with HCV genotype 1b replicon was < 0.1 nM; in the test on HCV genotype 1a replicon it was < 0.1 nM; in test [1], 10 to 1000 nM; in test [2], 1 to 10 nM; in test [3] it was 1 to 10 nM.
With `COC(=O)N[C@H](C(=O)N1C[C@@H](C)C[C@H]1c1nc(-c2ccc(-c3cc(Cl)c(NC(=O)c4ccc(N5CCN(C(=O)C(C)(C)C)C[C@H]5C)nc4)cc3OC(F)(F)F)cc2)c[nH]1)C1CCOCC1` [Example 14], the EC50 was < 0.1 nM with HCV genotype 1b replicon; < 0.1 nM with HCV genotype 1a replicon; 1 to 10 nM in test [1]; 0.1 to 1 nM in test [2]; 0.1 to 1 nM in test [3].
`COC(=O)N[C@H](C(=O)N1C[C@@H](C)C[C@H]1c1nc(-c2ccc(-c3cc(Cl)c(NC(=O)c4ccc(N5CCN(C(=O)C(C)(C)C)C[C@H]5C)nc4)cc3OC(F)(F)F)cc2)c[nH]1)C(C)C` [Example 10, [(S)-1-((2S,4S)-2-{4-[5′-Chloro-4′-({6-[(R)-4-(2,2-dimethyl-propionyl)-2-methyl-piperazin-1-yl]-pyridine-3-carbonyl}-amino)-2′-trifluoromethoxy-biphenyl-4-yl]-1H-imidazol-2-yl}-4-methyl-pyrrolidine-1-carbonyl)-2-methyl-propyl]-carbamic acid methyl ester]: the EC50 in the test with HCV genotype 1b replicon is < 0.1 nM; with HCV genotype 1a replicon it was < 0.1 nM; in test [1], 1 to 10 nM; in test [2] it was 1 to 10 nM; in test [3] it was 1 to 10 nM.
As for `COC(=O)N[C@H](C(=O)N1C[C@@H](C)C[C@H]1c1nc(-c2ccc(-c3c(Cl)cc(C(=O)Nc4ccc(N5CCN(C(=O)C(C)(C)C)C[C@H]5C)nc4)cc3OC(F)(F)F)cc2)c[nH]1)C1CCOCC1` [Example 20, Methyl ((S)-2-((2S,4S)-2-(4-(2′-chloro-4′-((6-((R)-2-methyl-4-pivaloylpiperazin-1-yl)pyridin-3-yl)carbamoyl)-6′-(trifluoromethoxy)-[1,1′-biphenyl]-4-yl)-1H-imidazol-2-yl)-4-methylpyrrolidin-1-yl)-2-oxo-1-(tetrahydro-2H-pyran-4-yl)ethyl)carbamate], the EC50 in the test with HCV genotype 1b replicon was < 0.1 nM; in the test on HCV genotype 1a replicon, < 0.1 nM; in test [1] it was 1 to 10 nM; in test [2], 1 to 10 nM; in test [3], 1 to 10 nM.
`CNC(=O)N1C[C@@H](C)N(c2ccc(C(=O)Nc3cc(OC(F)(F)F)c(-c4ccc(-c5c[nH]c([C@@H]6C[C@H](C)CN6C(=O)[C@@H](NC(=O)OC)C(C)C)n5)cc4)cc3Cl)cn2)C[C@@H]1C` [Example 1, ((S)-1-{(2S,4S)-2-[4-(5′-Chloro-4′-{[6-((2R,5S)-2,5-dimethyl-4-methylcarbamoyl-piperazin-1-yl)-pyridine-3-carbonyl]-amino}-2′-trifluoromethoxy-biphenyl-4-yl)-1H-imidazol-2-yl]-4-methyl-pyrrolidine-1-carbonyl}-2-methyl-propyl)-carbamic acid methyl ester]: the EC50 with HCV genotype 1b replicon was < 0.1 nM; with HCV genotype 1a replicon, < 0.1 nM; in test [1], 10 to 1000 nM; in test [2], 10 to 1000 nM; in test [3] it was 10 to 1000 nM.
For the compound `COC(=O)N[C@H](C(=O)N1C[C@@H](C(N)=O)C[C@H]1c1nc(-c2ccc(-c3cc(Cl)c(NC(=O)c4ccc(N5CCN(C(=O)C(C)(C)C)C[C@H]5C)nc4)cc3OC(F)(F)F)cc2)c[nH]1)C(C)C` [Example 18, [(S)-1-((2S,4S)-4-Carbamoyl-2-{4-[5′-chloro-4′-({6-[(R)-4-(2,2-dimethyl-propionyl)-2-methyl-piperazin-1-yl]-pyridine-3-carbonyl}-amino)-2′-trifluoromethoxy-biphenyl-4-yl]-1H-imidazol-2-yl}-pyrrolidine-1-carbonyl)-2-methyl-propyl]-carbamic acid methyl ester], the EC50 in the test with HCV genotype 1b replicon is < 0.1 nM; with HCV genotype 1a replicon, < 0.1 nM; in test [1] it was 1 to 10 nM; in test [2] it was 0.1 to 1 nM; in test [3] it was 1 to 10 nM.
Turning to `COC(=O)N[C@H](C(=O)N1C[C@@H](OC)C[C@H]1c1nc(-c2ccc(-c3cc(Cl)c(NC(=O)c4ccc(N5CCN(C(=O)C(C)(C)CO)C[C@H]5C)nc4)cc3OC(F)(F)F)cc2)c[nH]1)C1CCOCC1` [Example 16, [(S)-2-((2S,4S)-2-{4-[5′-Chloro-4′-({6-[(R)-4-(3-hydroxy-2,2-dimethyl-propionyl)-2-methyl-piperazin-1-yl]-pyridine-3-carbonyl}-amino)-2′-trifluoromethoxy-biphenyl-4-yl]-1H-imidazol-2-yl}-4-methoxy-pyrrolidin-1-yl)-2-oxo-1-(tetrahydro-pyran-4-yl)-ethyl]-carbamic acid methyl ester], the EC50 in the test with HCV genotype 1b replicon was < 0.1 nM; with HCV genotype 1a replicon it was < 0.1 nM; in test [1] it was 1 to 10 nM; in test [2], 1 to 10 nM; in test [3], 1 to 10 nM.
With `COC(=O)N[C@H](C(=O)N1C[C@@H](C)C[C@H]1c1nc(-c2ccc(-c3cc(F)c(NC(=O)c4ccc(N5CCN(C(=O)C(C)(C)C)C[C@H]5C)nc4)cc3OC(F)(F)F)cc2)c[nH]1)C(C)C` [Example 11, [(S)-1-((2S,4S)-2-{4-[4′-({6-[(R)-4-(2,2-Dimethyl-propionyl)-2-methyl-piperazin-1-yl]-pyridine-3-carbonyl}-amino)-5′-fluoro-2′-trifluoromethoxy-biphenyl-4-yl]-1H-imidazol-2-yl}-4-methyl-pyrrolidine-1-carbonyl)-2-methyl-propyl]-carbamic acid methyl ester], the EC50 with HCV genotype 1b replicon was < 0.1 nM; with HCV genotype 1a replicon it was < 0.1 nM; in test [1] it was 10 to 1000 nM; in test [2], 1 to 10 nM; in test [3] it was 1 to 10 nM.
For the compound `COC(=O)N[C@H](C(=O)N1C[C@@H](C)C[C@H]1c1nc(-c2ccc(-c3ccc(C(=O)Nc4ccc(N5CCN(C(=O)[C@H]6CC6(C)C)C[C@H]5C)nc4)cc3OC(F)(F)F)cc2)c[nH]1)C(C)C` [Example 8, ((S)-1-{(2S,4S)-2-[4-(4′-{6-[(R)-4-((S)-2,2-Dimethyl-cyclopropanecarbonyl)-2-methyl-piperazin-1-yl]-pyridin-3-ylcarbamoyl}-2′-trifluoromethoxy-biphenyl-4-yl)-1H-imidazol-2-yl]-4-methyl-pyrrolidine-1-carbonyl}-2-methyl-propyl)-carbamic acid methyl ester], the EC50 in the test with HCV genotype 1b replicon was < 0.1 nM; in the test on HCV genotype 1a replicon it was < 0.1 nM; in test [1], 10 to 1000 nM; in test [2], 10 to 1000 nM; in test [3] it was 10 to 1000 nM.
As to `COC(=O)N[C@H](C(=O)N1C[C@@H](OC)C[C@H]1c1nc(-c2ccc(-c3cc(Cl)c(NC(=O)c4ccc(N5CCN(C(=O)C(C)(C)C)C[C@H]5C)nc4)cc3OC(F)(F)F)cc2)c[nH]1)C(C)C` [Example 13], the EC50 was < 0.1 nM in the test with HCV genotype 1b replicon; < 0.1 nM in the test on HCV genotype 1a replicon; 1 to 10 nM in test [1]; 0.1 to 1 nM in test [2]; 0.1 to 1 nM in test [3].

The values are drawn from patent US9212168B2 (priority 2011, dated 2015).
